Experimental data taken from ChEMBL document CHEMBL1201861, “Genomics of Drug Sensitity in Cancer screening data, Wellcome Trust Sanger Institute”.

How the values were obtained:
[1] = test system: Caov-3 cell line; experiment: cells; format: functional, cell-based, Homo sapiens; details: Homo sapiens, Caov-3;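 note: cell growth inhibition read out by a viability assay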
Description: SANGER: Inhibition of human Caov-3 cell growth in a cell viability assay.

[2] = test system: DMS-53; experiment: cells; format: functional, cell-based, Homo sapiens; details: Homo sapiens, DMS-53;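 note: cell viability assay measuring growth inhibition of human DMS-53 cells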
Description: SANGER: Inhibition of human DMS-53 cell growth in a cell viability assay.

[3] = test system: DU-145; experiment: cells; format: functional, cell-based, Homo sapiens; details: Homo sapiens, DU-145
Description: SANGER: Inhibition of human DU-145 cell growth in a cell viability assay.

[4] = test system: EW-7; experiment: SANGER: Inhibition of human EW-7 cell growth in a cell viability assay.; format: functional, cell-based; details: Homo sapiens, EW-7
[5] = test system: HEC-1; experiment: cells; format: functional, cell-based, Homo sapiens; details: Homo sapiens, HEC-1;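 note: growth inhibition of the cell line, read out with a cell viability assay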
Description: SANGER: Inhibition of human HEC-1 cell growth in a cell viability assay.

[6] = test system: HLE; experiment: cells; format: functional, cell-based, Homo sapiens; details: Homo sapiens, HLE;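 note: growth inhibition of human HLE cells, read out by a cell viability assay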
Description: SANGER: Inhibition of human HLE cell growth in a cell viability assay.

[7] = test system: HOS; experiment: cells; format: functional, cell-based, Homo sapiens; details: Homo sapiens, HOS;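 note: growth inhibition of human HOS cells, read out with a cell viability assay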
Description: SANGER: Inhibition of human HOS cell growth in a cell viability assay.

[8] = test system: HSC-2; experiment: cells; format: functional, cell-based, Homo sapiens; details: Homo sapiens, HSC-2;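 note: growth inhibition of human HSC-2 cells, read out by a cell viability assay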
Description: SANGER: Inhibition of human HSC-2 cell growth in a cell viability assay.

[9] = test system: HT1197; experiment: cells; format: functional, cell-based, Homo sapiens, HT-1197; details: Homo sapiens, HT1197
Description: SANGER: Inhibition of human HT-1197 cell growth in a cell viability assay.

[10] = test system: HT-29; experiment: cells; format: functional, cell-based, Homo sapiens; details: Homo sapiens, HT-29;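 note: growth inhibition of human HT-29 cells, read out by a cell viability assay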
Description: SANGER: Inhibition of human HT-29 cell growth in a cell viability assay.

[11] = test system: KYSE-180; experiment: cells; format: functional, cell-based, Homo sapiens; details: Homo sapiens, KYSE-180;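 note: growth inhibition of KYSE-180 cells, read out with a cell viability assay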
Description: SANGER: Inhibition of human KYSE-180 cell growth in a cell viability assay.

[12] = test system: MDA-MB-468; experiment: cells; format: functional, cell-based, Homo sapiens; details: Homo sapiens, MDA-MB-468
Description: SANGER: Inhibition of human MDA-MB-468 cell growth in a cell viability assay.

[13] = test system: MES-SA; experiment: cells; format: functional, cell-based, Homo sapiens; details: Homo sapiens, MES-SA;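 note: growth inhibition of human MES-SA cells, read out with a cell viability assay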
Description: SANGER: Inhibition of human MES-SA cell growth in a cell viability assay.

[14] = test system: NCI-H1417; experiment: cells; format: functional, cell-based, Homo sapiens; details: Homo sapiens, NCI-H1417;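 note: human NCI-H1417 cells, growth inhibition determined with a cell viability readout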
Description: SANGER: Inhibition of human NCI-H1417 cell growth in a cell viability assay.

[15] = test system: NCI-H1618; experiment: cells; format: functional, cell-based, Homo sapiens; details: Homo sapiens, NCI-H1618;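 note: growth inhibition of human NCI-H1618 cells, measured by a cell viability assay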
Description: SANGER: Inhibition of human NCI-H1618 cell growth in a cell viability assay.

[16] = test system: NCI-H1734; experiment: cells; format: functional, cell-based, Homo sapiens; details: Homo sapiens, NCI-H1734;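 note: growth inhibition of human NCI-H1734 cells, read out with a cell viability assay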
Description: SANGER: Inhibition of human NCI-H1734 cell growth in a cell viability assay.

[17] = test system: NCI-H1755; experiment: cells; format: functional, cell-based, Homo sapiens; details: Homo sapiens, NCI-H1755;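 note: cell viability readout used to measure growth inhibition of NCI-H1755 cells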
Description: SANGER: Inhibition of human NCI-H1755 cell growth in a cell viability assay.

[18] = test system: NCI-H1793; experiment: cells; format: functional, cell-based, Homo sapiens; details: Homo sapiens, NCI-H1793;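 note: cell growth inhibition, read out by a cell viability assay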
Description: SANGER: Inhibition of human NCI-H1793 cell growth in a cell viability assay.

[19] = test system: NCI-H2227; experiment: cells; format: functional, cell-based, Homo sapiens; details: Homo sapiens, NCI-H2227;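 note: growth inhibition of the human cell line, read out with a cell viability assay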
Description: SANGER: Inhibition of human NCI-H2227 cell growth in a cell viability assay.

[20] = test system: NCI-H2228; experiment: cells; format: functional, cell-based, Homo sapiens; details: Homo sapiens, NCI-H2228;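 note: growth inhibition of human NCI-H2228 cells, read out by a cell viability assay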
Description: SANGER: Inhibition of human NCI-H2228 cell growth in a cell viability assay.

[21] = test system: NCI-H838; experiment: cells; format: functional, cell-based, Homo sapiens; details: Homo sapiens, NCI-H838;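 note: growth inhibition of human NCI-H838 cells, read out by a cell viability assay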
Description: SANGER: Inhibition of human NCI-H838 cell growth in a cell viability assay.

[22] = test system: PANC-03-27; experiment: cells; format: functional, cell-based, Homo sapiens; details: Homo sapiens, PANC-03-27
Description: SANGER: Inhibition of human PANC-03-27 cell growth in a cell viability assay.

[23] = test system: PC-3; experiment: cells; format: functional, cell-based, Homo sapiens; details: Homo sapiens, PC-3;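 note: cell viability assay measuring growth inhibition of PC-3 cells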
Description: SANGER: Inhibition of human PC-3 cell growth in a cell viability assay.

[24] = test system: PFSK-1; experiment: cells; format: functional, cell-based, Homo sapiens; details: Homo sapiens, PFSK-1;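 note: cell viability assay measuring how strongly compounds suppress growth of human PFSK-1 cells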
Description: SANGER: Inhibition of human PFSK-1 cell growth in a cell viability assay.

[25] = test system: SK-MEL-28; experiment: cells; format: functional, cell-based, Homo sapiens; details: Homo sapiens, SK-MEL-28;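 note: growth inhibition of human SK-MEL-28 cells, read out with a cell viability assay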
Description: SANGER: Inhibition of human SK-MEL-28 cell growth in a cell viability assay.

[26] = test system: SK-MEL-30; experiment: cells; format: functional, cell-based, Homo sapiens; details: Homo sapiens, SK-MEL-30;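 note: growth inhibition of SK-MEL-30 cells, determined with a cell viability assay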
Description: SANGER: Inhibition of human SK-MEL-30 cell growth in a cell viability assay.

[27] = test system: SNU-475; experiment: cells; format: functional, cell-based, Homo sapiens; details: Homo sapiens, SNU-475
Description: SANGER: Inhibition of human SNU-475 cell growth in a cell viability assay.

[28] = test system: SW1463; experiment: cells; format: functional, cell-based, Homo sapiens; details: Homo sapiens, SW1463;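 note: growth inhibition of SW1463 cells, determined with a cell viability assay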
Description: SANGER: Inhibition of human SW1463 cell growth in a cell viability assay.

[29] = test system: A-375; experiment: cells; format: functional, cell-based, Homo sapiens; details: Homo sapiens, A-375;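 note: growth inhibition of A375 cells, read out with a cell viability assay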
Description: SANGER: Inhibition of human A375 cell growth in a cell viability assay.

[30] = test system: ASPC1; experiment: cells; format: functional, cell-based, Homo sapiens; details: Homo sapiens, ASPC1;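 note: growth inhibition of AsPC-1 cells, read out with a cell viability assay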
Description: SANGER: Inhibition of human AsPC-1 cell growth in a cell viability assay.

[31] = test system: BC-3; experiment: cells; format: functional, cell-based, Homo sapiens; details: Homo sapiens, BC-3;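 note: cell viability assay measuring growth inhibition of human BC-3 cells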
Description: SANGER: Inhibition of human BC-3 cell growth in a cell viability assay.

[32] = test system: BHT-101; experiment: cells; format: functional, cell-based, Homo sapiens; details: Homo sapiens, BHT-101
Description: SANGER: Inhibition of human BHT-101 cell growth in a cell viability assay.

[33] = test system: C-4-II; experiment: SANGER: Inhibition of human C-4-II cell growth in a cell viability assay.; format: functional, cell-based; details: Homo sapiens, C-4-II
[34] = test system: CAL-27; experiment: cells; format: functional, cell-based, Homo sapiens; details: Homo sapiens, CAL-27;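 note: Viability-based readout, IC50 reflecting inhibition of CAL-27 cell growth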
Description: SANGER: Inhibition of human CAL-27 cell growth in a cell viability assay.

[35] = test system: TE-441-T; experiment: cells; format: functional, cell-based, Homo sapiens; details: Homo sapiens, TE-441-T
Description: SANGER: Inhibition of human TE-441-T cell growth in a cell viability assay.

[36] = test system: VM-CUB-1; experiment: cells; format: functional, cell-based, Homo sapiens; details: Homo sapiens, VM-CUB-1;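 note: cell viability assay measuring growth inhibition of the human VM-CUB-1 cell line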
Description: SANGER: Inhibition of human VM-CUB-1 cell growth in a cell viability assay.

[37] = test system: CAMA-1; experiment: cells; format: functional, cell-based, Homo sapiens; details: Homo sapiens, CAMA-1;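 note: growth inhibition of CAMA-1 cells, read out with a cell viability assay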
Description: SANGER: Inhibition of human CAMA-1 cell growth in a cell viability assay.

[38] = test system: CHL-1; experiment: cells; format: functional, cell-based, Homo sapiens; details: Homo sapiens, CHL-1;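 note: cell growth inhibition, read out with a cell viability assay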
Description: SANGER: Inhibition of human CHL-1 cell growth in a cell viability assay.

[39] = test system: CHP-126; experiment: cells; format: functional, cell-based, Homo sapiens; details: Homo sapiens, CHP-126
Description: SANGER: Inhibition of human CHP-126 cell growth in a cell viability assay.

[40] = test system: COLO 205; experiment: cells; format: functional, cell-based, Homo sapiens; details: Homo sapiens, COLO 205
Description: SANGER: Inhibition of human COLO-205 cell growth in a cell viability assay.

SMILES	IC50 [1] [nM]	IC50 [2] [nM]	IC50 [3] [nM]	IC50 [4] [nM]	IC50 [5] [nM]	IC50 [6] [nM]	IC50 [7] [nM]	IC50 [8] [nM]	IC50 [9] [nM]	IC50 [10] [nM]	IC50 [11] [nM]	IC50 [12] [nM]	IC50 [13] [nM]	IC50 [14] [nM]	IC50 [15] [nM]	IC50 [16] [nM]	IC50 [17] [nM]	IC50 [18] [nM]	IC50 [19] [nM]	IC50 [20] [nM]	also measured
Cc1cc([N+](=O)[O-])ccc1NS(=O)(=O)c1cc(Cl)ccc1Cl	> 32000	1100	4690	> 32000	8240	1990	2530	4560	11200	5530	3130	1210	> 32000	23200	> 32000	8730	15800	> 32000	> 32000	17000	IC50 [21]: 20600 nM; IC50 [22]: 6380 nM; IC50 [23]: 8120 nM; IC50 [24]: 12400 nM; IC50 [25]: 355 nM; IC50 [26]: 5760 nM; IC50 [27]: > 32000 nM; IC50 [28]: 7850 nM; IC50 [29]: 3580 nM; IC50 [30]: 22300 nM; IC50 [31]: 8380 nM; IC50 [32]: 21400 nM; IC50 [33]: 6370 nM; IC50 [34]: 3160 nM; IC50 [35]: 7310 nM; IC50 [36]: 8150 nM; IC50 [37]: 911 nM; IC50 [38]: 2180 nM; IC50 [39]: > 32000 nM; IC50 [40]: 2550 nM
Oc1ccc2ccccc2c1SSc1c(O)ccc2ccccc12	> 32000	> 32000	8210	> 32000	> 32000	4520	4500	> 32000	10300	> 32000	> 32000	> 32000	23900	> 32000	> 32000	> 32000	> 32000	> 32000	> 32000	> 32000	IC50 [21]: > 32000 nM; IC50 [22]: > 32000 nM; IC50 [23]: > 32000 nM; IC50 [24]: > 32000 nM; IC50 [25]: > 32000 nM; IC50 [26]: > 32000 nM; IC50 [27]: > 32000 nM; IC50 [28]: > 32000 nM; IC50 [29]: > 32000 nM; IC50 [30]: > 32000 nM; IC50 [31]: > 32000 nM; IC50 [32]: > 32000 nM; IC50 [33]: > 32000 nM; IC50 [34]: > 32000 nM; IC50 [35]: 11500 nM; IC50 [36]: > 32000 nM; IC50 [37]: > 32000 nM; IC50 [38]: 11900 nM; IC50 [39]: 6740 nM; IC50 [40]: > 32000 nM
N#Cc1c(O)c2c(-c3ccc(-c4ccccc4O)cc3)csc2[nH]c1=O	> 1020	> 1020	> 1020	> 1020	> 1020	> 1020	> 1020	> 1020	> 1020	> 1020	> 1020	> 1020	> 1020	439	> 1020	> 1020	> 1020	> 1020	> 1020	> 1020	IC50 [21]: > 1020 nM; IC50 [22]: > 1020 nM; IC50 [23]: > 1020 nM; IC50 [24]: > 1020 nM; IC50 [25]: > 1020 nM; IC50 [26]: > 1020 nM; IC50 [27]: > 1020 nM; IC50 [28]: > 1020 nM; IC50 [29]: > 1020 nM; IC50 [30]: > 1020 nM; IC50 [31]: > 1020 nM; IC50 [32]: > 1020 nM; IC50 [33]: > 1020 nM; IC50 [34]: > 1020 nM; IC50 [35]: > 1020 nM; IC50 [36]: > 1020 nM; IC50 [37]: > 1020 nM; IC50 [38]: > 1020 nM; IC50 [39]: 269 nM; IC50 [40]: > 1020 nM
C=C(c1ccc(C(=O)O)cc1)c1cc2c(cc1C)C(C)(C)CCC2(C)C [BEXAROTENE]	> 8000	> 8000	> 8000	> 8000	> 8000	> 8000	> 8000	> 8000	> 8000	> 8000	5030	> 8000	> 8000	> 8000	> 8000	> 8000	> 8000	> 8000	> 8000	> 8000	IC50 [21]: > 8000 nM; IC50 [22]: > 8000 nM; IC50 [23]: > 8000 nM; IC50 [24]: > 8000 nM; IC50 [25]: > 8000 nM; IC50 [26]: > 8000 nM; IC50 [27]: > 8000 nM; IC50 [28]: > 8000 nM; IC50 [29]: > 8000 nM; IC50 [30]: > 8000 nM; IC50 [31]: > 8000 nM; IC50 [32]: > 8000 nM; IC50 [33]: > 8000 nM; IC50 [34]: > 8000 nM; IC50 [35]: > 8000 nM; IC50 [36]: > 8000 nM; IC50 [37]: > 8000 nM; IC50 [38]: > 8000 nM; IC50 [39]: > 8000 nM; IC50 [40]: > 8000 nM
CCC/C=C/C=C/C(=O)O[C@H]1/C(=C/C(=O)OC)C[C@H]2C[C@H]([C@@H](C)O)OC(=O)C[C@H](O)C[C@@H]3C[C@H](OC(C)=O)C(C)(C)[C@](O)(C[C@@H]4C/C(=C/C(=O)OC)C[C@H](/C=C/C(C)(C)[C@]1(O)O2)O4)O3 [BRYOSTATIN 1]	> 8	> 8	> 8	> 8	> 8	> 8	> 8	> 8	> 8	> 8	> 8	> 8	> 8	> 8	> 8	> 8	> 8	> 8	> 8	> 8	IC50 [21]: > 8 nM; IC50 [22]: > 8 nM; IC50 [23]: > 8 nM; IC50 [24]: > 8 nM; IC50 [25]: > 8 nM; IC50 [26]: > 8 nM; IC50 [27]: > 8 nM; IC50 [28]: > 8 nM; IC50 [29]: > 8 nM; IC50 [30]: > 8 nM; IC50 [31]: > 8 nM; IC50 [32]: > 8 nM; IC50 [33]: > 8 nM; IC50 [34]: > 8 nM; IC50 [35]: > 8 nM; IC50 [36]: > 8 nM; IC50 [37]: > 8 nM; IC50 [38]: > 8 nM; IC50 [39]: > 8 nM; IC50 [40]: > 8 nM
COc1cccc2c1C(=O)c1c(O)c3c(c(O)c1C2=O)C[C@@](O)(C(=O)CO)C[C@@H]3O[C@H]1C[C@H](N)[C@H](O)[C@H](C)O1 [DOXORUBICIN]	406	> 1020	73.7	30.6	183	35.8	45.3	26.8	213	36.6	59.8	76.2	99.5	370	104	53	874	901	> 1020	13.5	IC50 [21]: 225 nM; IC50 [22]: 28.2 nM; IC50 [23]: 957 nM; IC50 [24]: 678 nM; IC50 [25]: > 1020 nM; IC50 [26]: 35.6 nM; IC50 [27]: > 1020 nM; IC50 [28]: > 1020 nM; IC50 [29]: 9.17 nM; IC50 [30]: 855 nM; IC50 [31]: 166 nM; IC50 [32]: 396 nM; IC50 [33]: 473 nM; IC50 [34]: 32.6 nM; IC50 [35]: 89.8 nM; IC50 [36]: 75.4 nM; IC50 [37]: 159 nM; IC50 [38]: 37.7 nM; IC50 [39]: 59.2 nM; IC50 [40]: 27 nM
